From patent EP4596574A1, “GLP-1/GCG/GIP TRIPLE-RECEPTOR AGONIST AND USE THEREOF” (Sunshine Lake Pharma Co., Ltd., priority 2022, dated 2024)
Marks after values point to notes of the source that are not given here. Starred links: 1 amine or outer side, 2 acyl side, 3 side chain; linkers in the order of their positions; H or OH if unused. Non-standard residues stand in square brackets, D forms with d. Residues, ends and D or L forms follow the SMILES beside them. Groups on a side chain read outwards from the residue. *: point of attachment. C18 diacid = O=C(O)CCCCCCCCCCCCCCCCC(=O)*; αMePhe(2-F) = C[C@](N)(Cc1ccccc1F)C(=O)O; γGlu = O=C(O)[C@H](CCC(=O)[*:2])N[*:1]; AEEA = NCCOCCOCC(=O)O; Aib = CC(C)(N)C(=O)O

How the values were obtained:
GCGR = target: T1, GCGR (Homo sapiens, UniProt P47871); test: In vitro cell activity, cAMP production in HEK293 cells expressing GCGR; format: cell-based
T1 construct: expressed in transfected cells; host or cells: HEK293 (HEK293-GCGR)
Summary of the method: (§1)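 Cells were plated at 4×10^5 cells/mL, and detection reagents (cAMP-d2, anti-cAMP cryptate, 1:1) were incubated 1 h at room temperature in the dark or overnight at 4 °C.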

GIPR = target: T2, GIPR (Homo sapiens, UniProt P48546); test: In vitro cell activity, cAMP production in HEK293 cells expressing GIPR; format: cell-based
T2 construct: expressed in transfected cells; host or cells: HEK293 (HEK293-GIPR)
T2 sequence (P48546 22-466): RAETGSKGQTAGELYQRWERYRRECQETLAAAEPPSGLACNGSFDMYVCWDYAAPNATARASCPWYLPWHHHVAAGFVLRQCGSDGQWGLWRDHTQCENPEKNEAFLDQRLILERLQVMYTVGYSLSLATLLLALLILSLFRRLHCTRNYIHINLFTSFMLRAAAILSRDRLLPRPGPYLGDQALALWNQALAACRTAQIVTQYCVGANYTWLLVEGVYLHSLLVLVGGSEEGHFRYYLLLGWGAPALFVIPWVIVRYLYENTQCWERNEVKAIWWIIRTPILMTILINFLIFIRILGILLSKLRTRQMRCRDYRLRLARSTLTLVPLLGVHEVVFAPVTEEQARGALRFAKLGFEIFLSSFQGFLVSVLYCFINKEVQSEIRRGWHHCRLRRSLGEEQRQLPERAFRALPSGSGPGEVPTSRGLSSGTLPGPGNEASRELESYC
Summary of the method: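 cAMP accumulation is quantified by homogeneous TR-FRET (cAMP-d2 plus anti-cAMP cryptate) in GIPR-expressing HEK293 cells seeded from a 4×10^5 cells/mL suspension and treated with compound. The signal ratio is plotted against concentration and fitted to a four-parameter curve to give EC50.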

[1] = Glucose tolerance assessment in normal C57BL/6 mice (Example 5); format: in vivo
Summary of the method: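 Normal C57BL/6 mice given a single dose, fasted 12 h starting 12 h post-dose, then challenged with 2 g/kg glucose i.p. Tail-vein glucose measured at baseline and 15, 30, 60, 90 min. AUC0~90min calculated from the glucose–time curve per dose group.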

GLP-1R = target: T3, GLP-1R (Homo sapiens, UniProt P43220); test: In vitro cell activity, cAMP production in HEK293 cells expressing GLP-1R; format: cell-based
T3 construct: expressed in transfected cells; host or cells: HEK293 (HEK293-GLP-1R)
Summary of the method: as §1

[2] = Pharmacokinetic study in rats, single subcutaneous injection; conditions: male, Sprague Dawley, in vivo, sc, rat, 50 nmol/kg single subcutaneous injection, plasma
Description: The pharmacokinetic study of each polypeptide compound prepared in Example 1 was conducted using male Sprague Dawley rats. There were 3 male rats in each group. […] The dose was 50 nmol/kg, and a single subcutaneous injection was given (see Table 3 for specific peptide compounds). After administration, plasma was collected on the specified days and time points, and the concentration of each peptide compound in the plasma was detected by LC-MS/MS method. The pharmacokinetic parameters were obtained based on the concentration data, which were used to describe the pharmacokinetic properties of the peptide in rats after subcutaneous injection. Table 3: Summary of pharmacokinetic parameters of some triple-target peptides in rats

T3 sequence (P43220 24-463, species assumed): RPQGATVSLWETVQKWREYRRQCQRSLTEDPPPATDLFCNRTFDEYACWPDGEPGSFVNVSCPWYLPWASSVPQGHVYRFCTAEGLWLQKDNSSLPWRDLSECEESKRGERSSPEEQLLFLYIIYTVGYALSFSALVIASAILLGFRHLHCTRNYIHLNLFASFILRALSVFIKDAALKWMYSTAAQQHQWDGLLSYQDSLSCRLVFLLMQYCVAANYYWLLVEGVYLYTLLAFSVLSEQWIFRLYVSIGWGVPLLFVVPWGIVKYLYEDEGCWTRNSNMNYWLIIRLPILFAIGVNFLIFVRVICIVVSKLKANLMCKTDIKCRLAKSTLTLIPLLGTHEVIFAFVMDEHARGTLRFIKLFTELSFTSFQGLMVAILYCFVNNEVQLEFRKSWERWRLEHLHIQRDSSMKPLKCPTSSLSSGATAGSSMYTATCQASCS
T1 sequence (P47871 26-477, species assumed): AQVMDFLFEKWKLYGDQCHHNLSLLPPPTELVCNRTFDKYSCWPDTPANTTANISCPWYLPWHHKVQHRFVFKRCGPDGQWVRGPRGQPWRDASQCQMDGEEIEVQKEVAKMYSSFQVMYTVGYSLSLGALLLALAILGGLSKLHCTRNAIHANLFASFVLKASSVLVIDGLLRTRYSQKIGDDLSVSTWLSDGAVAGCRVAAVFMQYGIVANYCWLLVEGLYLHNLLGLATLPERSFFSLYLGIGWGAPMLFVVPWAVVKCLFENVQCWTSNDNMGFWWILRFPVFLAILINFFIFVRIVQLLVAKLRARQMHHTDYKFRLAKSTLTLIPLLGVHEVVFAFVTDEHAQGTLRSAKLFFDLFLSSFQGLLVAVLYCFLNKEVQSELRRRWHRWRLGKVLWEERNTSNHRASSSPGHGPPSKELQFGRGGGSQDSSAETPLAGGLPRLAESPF

CC[C@H](C)[C@H](NC(=O)[C@H](CCCCN)NC(=O)[C@H](CC(=O)O)NC(=O)[C@H](CCCCNC(=O)COCCOCCNC(=O)CC[C@H](NC(=O)CCCCCCCCCCCCCCCCC(=O)O)C(=O)O)NC(=O)[C@H](CC(C)C)NC(=O)[C@@H](NC(=O)[C@H](CO)NC(=O)[C@H](Cc1ccc(O)cc1)NC(=O)[C@H](CC(=O)O)NC(=O)[C@H](CO)NC(=O)[C@@H](NC(=O)[C@](C)(Cc1ccccc1F)NC(=O)[C@@H](NC(=O)CNC(=O)[C@H](CCC(N)=O)NC(=O)C(C)(C)NC(=O)[C@@H](N)Cc1ccc(O)cc1)[C@@H](C)O)[C@@H](C)O)[C@@H](C)CC)C(=O)N[C@@H](C)C(=O)N[C@@H](CCC(N)=O)C(=O)N[C@@H](CCC(N)=O)C(=O)N[C@@H](C)C(=O)N[C@@H](Cc1ccccc1)C(=O)N[C@H](C(=O)N[C@@H](CCC(=O)O)C(=O)N[C@@H](Cc1ccc(O)cc1)C(=O)N[C@@H](CC(C)C)C(=O)N[C@@H](CC(C)C)C(=O)N[C@@H](CCC(=O)O)C(=O)NCC(=O)NCC(=O)N1CCC[C@H]1C(=O)N[C@@H](CO)C(=O)N[C@@H](CO)C(=O)NCC(=O)N[C@@H](C)C(=O)N1CCC[C@H]1C(=O)N1CCC[C@H]1C(=O)N1CCC[C@H]1C(=O)N[C@@H](CO)C(N)=O)[C@@H](C)CC [HEC-PT113] (H-Y[Aib]QGT[αMePhe(2-F)]TSDYSILK([AEEA-γGlu-C18 diacid])DKIAQQAFIEYLLEGGPSSGAPPPS-NH2)
EC50 (GCGR): 0.171 nM
EC50 (GIPR): 0.0188 nM
Blood glucose level (mM) 15 min ([1]; 3 nmol/kg s.c. single dose, 24 h after administration, 15 min after 2 g/kg glucose i.p.): 12.6 ± 1.7 mM
Blood glucose level (mM) 30 min ([1]; 3 nmol/kg s.c. single dose, 24 h after administration, 30 min after 2 g/kg glucose i.p.): 8.0 ± 1.0 mM
Blood glucose level (mM) 60 min ([1]; 3 nmol/kg s.c. single dose, 24 h after administration, 60 min after 2 g/kg glucose i.p.): 7.9 ± 1.3 mM
Blood glucose level (mM) 90 min ([1]; 3 nmol/kg s.c. single dose, 24 h after administration, 90 min after 2 g/kg glucose i.p.): 6.7 ± 0.8 mM
Blood glucose level (mM) 0 min ([1]; 3 nmol/kg s.c. single dose, 24 h after administration, basal before 2 g/kg glucose i.p.): 4.6 ± 0.9 mM
improvement of glucose tolerance compared with LY3298176 ([1]; 24 hours after a single administration, 3 nmol/kg): improved glucose tolerance in mice better than the positive control LY3298176
AUC0-90 min ([1]; blood glucose AUC, 3 nmol/kg s.c. single dose, 24 h after administration, 2 g/kg glucose i.p.): 743.5±48.5^a
EC50 (GLP-1R): 0.103 nM
AUC(0-inf) [2]: 27900 ± 4180 ng·h/mL
AUC(0-t) [2]: 27700 ± 4110 ng·h/mL
Cmax [2]: 714 ± 63.2 ng/mL
half-life ([2]; read-out: T1/2 (converted)): 660 ± 37.2 min
Tmax ([2]; read-out: Tmax): 13 ± 9.9 h
